# Tested on: male C57Bl6J mice
# Test: Metabolic efficiency
# Format: in vivo
# Details: insulin 20 nmol/kg daily i.p., n=8
substance,measurement,value
insulin,nocturnal chow intake,slight decrease

# From publication doi:10.1101/2020.07.11.198341v1 (bioRxiv, 2020)
